Test results published in ChEMBL document CHEMBL3232707, “Total synthesis of the lipid mediator PD1n-3 DPA: configurational assignments and anti-inflammatory and pro-resolving actions” (J Nat Prod, 2014).
Calls of active or inactive are those of the source.

Columns and labels:
Macrophage [1] = experiment: Pro-resolving activity in human macrophages assessed as increase of phagocytosis of fluorescence-labeled yeast cell wall particles at 100 nM to 10 pM preincubated for 15 mins measured after 60 mins; assay type: functional, cell-based
Mus musculus [2] = experiment: Antiinflammatory activity in mouse assessed as reduction of zymosan-induced number of neutrophils recovered from peritoneal exudates at 10 ng, iv administered 5 mins before zymosan challenge measured after 4 hrs by light microscopy/flow cytometry; assay type: functional, organism-based
Mus musculus [3] = experiment: Antiinflammatory activity in mouse assessed as reduction of zymosan-induced neutrophil recruitment during peritonitis at 10 ng, iv administered 5 mins before zymosan challenge measured after 4 hrs by light microscopy/flow cytometry; assay type: functional, organism-based
Macrophage [4] = experiment: Pro-resolving activity in human macrophages assessed as increase of phagocytosis of bisbenzimide-labeled apoptotic neutrophils at 100 nM to 10 pM preincubated for 15 mins measured after 60 mins; assay type: functional, cell-based

Measured: Activity

CC/C=C\C[C@H](O)\C=C/C=C/C=C/[C@H](O)C/C=C\CCCCCC(=O)O
active: all assays above

CC/C=C\C[C@H](O)\C=C/C=C/C=C/[C@H](O)C/C=C\C/C=C\CCC(=O)O
active: all assays above
